Legend:
MV4-11 [1] = experiment: Induction of cell cycle arrest in human MV4-11 cells assessed as accumulation at G0/G1 phase at 0.1 uM measured after 24 hrs by flow cytometry (reference value: 64.29 %); format: functional
HepG2 = experiment: Antiproliferative activity human HepG2 cells assessed as cell growth inhibition measured after 72 hrs by CCK8 assay; conditions: HepG2, 72 h
MV4-11 [2] = experiment: Induction of apoptosis in human MV4-11 cells assessed as viable cells at 2.5 uM measured after 48 hrs by Annexin V-FITC/PI double staining based flow cytometric analysis (reference value: 80.26 %); format: functional; conditions: read-out: Activity
[3] = molecular target: Serine/threonine-protein kinase AKT (Homo sapiens) (UniProt P31751+Q9Y243+P31749); experiment: Inhibition of AKT phosphorylation in human MV4-11 cells incubated for 12 hrs by Western blot analysis; format: cell-based; conditions: dose 0.1-2.5 µM, DDE = dose-dependent effect
Sequence of Serine/threonine-protein kinase AKT (Homo sapiens) (P31749 whole entry, looked up): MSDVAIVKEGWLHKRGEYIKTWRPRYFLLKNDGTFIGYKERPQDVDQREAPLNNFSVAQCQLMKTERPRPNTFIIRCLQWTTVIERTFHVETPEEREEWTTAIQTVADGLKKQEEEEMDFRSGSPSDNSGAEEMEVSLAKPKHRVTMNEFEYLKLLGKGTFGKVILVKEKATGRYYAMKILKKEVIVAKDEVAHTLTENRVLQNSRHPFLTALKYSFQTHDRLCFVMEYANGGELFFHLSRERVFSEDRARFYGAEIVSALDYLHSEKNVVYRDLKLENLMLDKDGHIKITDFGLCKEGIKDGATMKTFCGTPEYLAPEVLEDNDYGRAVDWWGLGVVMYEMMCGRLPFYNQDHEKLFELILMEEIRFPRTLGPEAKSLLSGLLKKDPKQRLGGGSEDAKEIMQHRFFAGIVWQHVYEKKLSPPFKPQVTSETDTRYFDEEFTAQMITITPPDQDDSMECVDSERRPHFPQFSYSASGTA
Sequence of Serine/threonine-protein kinase AKT (Homo sapiens) (P31751 whole entry, looked up): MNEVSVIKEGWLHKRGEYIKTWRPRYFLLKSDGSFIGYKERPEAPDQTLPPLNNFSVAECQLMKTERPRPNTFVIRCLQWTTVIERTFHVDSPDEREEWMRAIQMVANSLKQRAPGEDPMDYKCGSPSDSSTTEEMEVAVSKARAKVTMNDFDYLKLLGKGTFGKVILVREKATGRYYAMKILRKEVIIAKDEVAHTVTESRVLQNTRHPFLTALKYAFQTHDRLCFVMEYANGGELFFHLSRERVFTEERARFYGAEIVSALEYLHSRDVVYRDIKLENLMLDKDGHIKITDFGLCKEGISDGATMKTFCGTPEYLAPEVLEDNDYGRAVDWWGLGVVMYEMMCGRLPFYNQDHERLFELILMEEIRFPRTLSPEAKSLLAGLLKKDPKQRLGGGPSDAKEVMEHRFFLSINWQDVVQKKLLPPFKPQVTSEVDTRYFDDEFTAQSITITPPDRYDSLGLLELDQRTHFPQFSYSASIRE
Sequence of Serine/threonine-protein kinase AKT (Homo sapiens) (Q9Y243 whole entry, looked up): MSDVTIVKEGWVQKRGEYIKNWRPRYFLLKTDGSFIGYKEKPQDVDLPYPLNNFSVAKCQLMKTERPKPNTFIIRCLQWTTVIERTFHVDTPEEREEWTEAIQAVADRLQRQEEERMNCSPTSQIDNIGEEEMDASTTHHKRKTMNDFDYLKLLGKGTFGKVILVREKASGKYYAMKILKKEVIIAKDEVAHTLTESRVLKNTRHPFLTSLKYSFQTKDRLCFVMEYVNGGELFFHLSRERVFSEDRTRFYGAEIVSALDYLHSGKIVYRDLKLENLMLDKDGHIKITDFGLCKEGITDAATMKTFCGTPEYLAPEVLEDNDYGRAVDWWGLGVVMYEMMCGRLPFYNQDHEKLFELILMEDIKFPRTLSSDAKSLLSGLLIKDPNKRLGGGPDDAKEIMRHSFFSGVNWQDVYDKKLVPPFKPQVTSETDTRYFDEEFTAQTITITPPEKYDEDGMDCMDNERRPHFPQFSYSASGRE

MV4-11 [4] = experiment: Induction of apoptosis in human MV4-11 cells assessed as viable cells at 0.1 uM measured after 48 hrs by Annexin V-FITC/PI double staining based flow cytometric analysis (reference value: 80.26 %); format: functional; conditions: read-out: Activity
MV4-11 [5] = experiment: Induction of cell cycle arrest in human MV4-11 cells assessed as accumulation at G0/G1 phase at 0.5 uM measured after 24 hrs by flow cytometry (reference value: 64.29 %); format: functional
MV4-11 [6] = experiment: Inhibition of ERK phosphorylation in human MV4-11 cells incubated for 12 hrs by Western blot analysis; format: cell-based; conditions: dose 0.1-2.5 µM, DDE = dose-dependent effect
[7] = molecular target: Receptor-type tyrosine-protein kinase FLT3 (Homo sapiens) (UniProt P36888); experiment: Inhibition of FLT3 phosphorylation in human MV4-11 cells incubated for 12 hrs by Western blot analysis; format: cell-based; conditions: dose 0.1-2.5 µM, DDE = dose-dependent effect
Sequence of Receptor-type tyrosine-protein kinase FLT3 (Homo sapiens) (P36888 whole entry): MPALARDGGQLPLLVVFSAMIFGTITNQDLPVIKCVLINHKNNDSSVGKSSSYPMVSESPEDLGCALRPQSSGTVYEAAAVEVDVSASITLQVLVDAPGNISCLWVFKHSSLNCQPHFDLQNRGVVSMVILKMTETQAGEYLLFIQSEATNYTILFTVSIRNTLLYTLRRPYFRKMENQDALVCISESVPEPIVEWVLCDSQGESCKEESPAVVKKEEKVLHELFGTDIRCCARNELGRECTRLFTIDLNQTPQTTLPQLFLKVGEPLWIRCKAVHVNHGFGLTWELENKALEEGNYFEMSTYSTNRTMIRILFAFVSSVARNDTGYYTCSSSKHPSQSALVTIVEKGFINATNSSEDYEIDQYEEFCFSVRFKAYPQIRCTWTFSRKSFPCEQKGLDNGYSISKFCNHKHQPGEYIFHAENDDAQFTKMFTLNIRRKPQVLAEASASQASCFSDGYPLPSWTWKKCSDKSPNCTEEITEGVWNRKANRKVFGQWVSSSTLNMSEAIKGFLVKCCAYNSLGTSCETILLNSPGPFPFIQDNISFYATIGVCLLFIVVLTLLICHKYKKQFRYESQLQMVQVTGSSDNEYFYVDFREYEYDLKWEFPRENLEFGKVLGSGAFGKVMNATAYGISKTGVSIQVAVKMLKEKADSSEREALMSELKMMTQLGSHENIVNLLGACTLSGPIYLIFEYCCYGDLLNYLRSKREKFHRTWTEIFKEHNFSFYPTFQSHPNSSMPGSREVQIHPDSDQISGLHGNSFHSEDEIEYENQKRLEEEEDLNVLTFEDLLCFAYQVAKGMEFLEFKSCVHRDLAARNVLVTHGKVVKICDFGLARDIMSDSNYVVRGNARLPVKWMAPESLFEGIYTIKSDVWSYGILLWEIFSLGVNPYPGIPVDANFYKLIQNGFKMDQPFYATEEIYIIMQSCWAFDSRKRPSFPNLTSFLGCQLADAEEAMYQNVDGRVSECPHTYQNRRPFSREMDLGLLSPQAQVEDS

MV4-11 [8] = experiment: Induction of apoptosis in human MV4-11 cells assessed as late apoptotic cells at 2.5 uM measured after 48 hrs by Annexin V-FITC/PI double staining based flow cytometric analysis (reference value: 12.03 %); format: functional
MV4-11 [9] = experiment: Induction of cell cycle arrest in human MV4-11 cells assessed as accumulation at G0/G1 phase at 2.5 uM measured after 24 hrs by flow cytometry (reference value: 64.29 %); format: functional
[10] = Cytotoxicity against human K562 cells assessed as cell growth inhibition measured after 72 hrs by CCK8 assay; format: toxicity, cell-based
MV4-11 [11] = experiment: Induction of apoptosis in human MV4-11 cells assessed as viable cells at 0.5 uM measured after 48 hrs by Annexin V-FITC/PI double staining based flow cytometric analysis (reference value: 80.26 %); format: functional; conditions: read-out: Activity

Structure (SMILES): C=CC(=O)Nc1ccc(NC(=O)Nc2ccc(-c3cc(C)nc4noc(N)c34)cc2)cc1
- Activity (MV4-11 [1]): 67.6%
- IC50 (HepG2): > 10 µM
- viability at 2.5 µM (MV4-11 [2]): 53.9%
- inhibition [3]: Dde
- viability at 0.1 µM (MV4-11 [4]): 81.8%
- Activity (MV4-11 [5]): 71.37%
- inhibition (MV4-11 [6]): Dde
- inhibition [7]: Dde
- Activity (MV4-11 [8]): 35.01%
- Activity (MV4-11 [9]): 83%
- IC50 at 72 h [10]: > 10 µM
- viability at 0.5 µM (MV4-11 [11]): 77.5%
